Experimental findings from patent US6784283B2, “Peptide antibiotics” (The University of British Columbia, priority 2000, dated 2004) are described below.

Assay [1] relates to methicillin-resistant Staphylococcus aureus. As to the kind of experiment: agar dilution antimicrobial assay (MIC). The class given is cell-based. The method, then: (§1) A solution of Bogorol A was prepared by dissolving 3 mg of e compound in 300 μL of dimethylsulfoxide (DMSO). Serial two-fold dilutions were prepared in DMSO, and 50 μL of each dilution was mixed with 5 mL of melted Mueller-Hinton agar to achieve a final Bogorol A concentration range of 200 to 0.48 μg/ml. After the agar solidified, standardized suspensions of the target organisms were inoculated onto the surface of the agar using a multipoint inoculator. The standardized suspensions were prepared in tryptic soy broth adjusted to a 1.0 McFarland turbidity standard. The plates were incubated over night at 37° C. Activity of Bogorol A was indicated by a lack of growth of any target organism at its point of inoculation.
Background: Agar dilution tests growth on a series of plates holding different concentrations.

The next assay relates to Escherichia coli. Particulars: agar dilution. The method, then: as §1
Assay [2] concerns Drug Resistant Pseudomonas aeruginosa. As to conditions: other target organisms tested (Drug Resistant Pseudomonas aeruginosa); agar dilution. The method, then: as §1
The next assay relates to Candida aibicans. Particulars: other target organisms tested (Candida aibicans); agar dilution. The method, then:
as §1

Assay [3] deals with Stenotrophomonas maltophilia. Particulars: agar dilution. The method, then: as §1
Assay [4] has as its system vancomycin-resistant Enterococcus faecalis. As to conditions: agar dilution. The method, then:
as §1

The subject of another assay is Berkholderia cepacia. Particulars: other target organisms tested (Berkholderia cepacia); agar dilution. The method, then:
as §1

The structures appear in SMILES notation. Starred links: 1 amine or outer side, 2 acyl side, 3 side chain; linkers in the order of their positions; H or OH if unused. Non-standard residues stand in square brackets, D forms with d. Residues, ends and D or L forms follow the SMILES beside them. *: point of attachment. Pentanoyl(2S-OH,3S-Me) = CC[C@H](C)[C@H](O)C(=O)*; X1 = C/C=C(/N[*:1])C(=O)[*:2]; dOrn = NCCC[C@@H](N)C(=O)O; Valol = CC(C)[C@@H](CO)N*

In the case of `C/C=C(/NC(=O)[C@@H](O)[C@@H](C)CC)C(=O)N[C@@H](CC(C)C)C(=O)N[C@H](CCCN)C(=O)N[C@H](C(=O)N[C@H](C(=O)N[C@H](C(=O)N[C@H](CCCCN)C(=O)N[C@H](C(=O)N[C@@H](CC(C)C)C(=O)N[C@@H](CCCCN)C(=O)N[C@H](Cc1ccc(O)cc1)C(=O)N[C@H](CC(C)C)C(=O)N[C@H](CO)C(C)C)C(C)C)C(C)C)C(C)C)[C@@H](C)CC` [Bogorol A] ({Pentanoyl(2S-OH,3S-Me)}-[X1]L[dOrn]IVV[dK]VLK[dY][dL]-Valol), the “antimicrobial activity (in words)” value was “active” in assay [1]; “moderately active” in the assay with Escherichia coli; “essentially inactive” in assay [2]; “essentially inactive” with Candida aibicans; “moderately active” in assay [3]; “active” in assay [4]. The “antimicrobial activity (in words)” value in the assay with Berkholderia cepacia is “essentially inactive”.
